Laboratory results from publication PMC11378298 (ACS Chemical Neuroscience, 2024).

Tests used:
BV-2 cell line = assay: IL-6 release in LPS-treated BV-2 cells (LANCE Ultra TR-FRET); type: cell-based, mouse; details: compound 10 μM; LPS 100 ng/mL
Description: Cell viability was determined by Presto Blue assay after 24 h. (B) Effect of compounds 11, 34, and 36 (0.1, 1, 10 μM) on NO-release (%) in LPS-treated (100 ng/mL) BV-2 cell line. NO-release was measured using a fluorometric assay with 2,3-diaminonaphthalene (DAN). (C, D) Effects of compounds 11 and 36 (0.1, 1, 10 μM) on IL-6 and TNF-α release in LPS-treated (100 ng/mL) BV-2 cell line. The IL-6 and TNF-α levels were measured using LANCE Ultra TR-FRET Detection Kit (PerkinElmer). Statistical analysis was performed using GraphPad Prism 9.0.0. All values are expressed as mean with SD. Differences among groups were evaluated by one-way ANOVA followed by posthoc analysis (Dunnett’s multiple comparison tests) vs. control group (LPS on BV-2 cells and okadaic acid on HT-22 cells) and were considered statistically significant if p < 0.05 (*p < 0.05, **p < 0.01, ***p < 0.001, and ****p < 0.0001). […]
The IL-6 and TNF-α levels in the culture supernatants were measured using LANCE Ultra TR-FRET Detection Kit (PerkinElmer), according to manufacturer protocol. […] After 1 h of incubation of IL-6 and 3h for incubation of TNF-α in the dark, at 22 °C, the plates were read with an EnVision plate reader (PerkinElmer) with the excitation wavelength at 320 nm, the donor emission at 615 nm, and the acceptor emission at 660 nm. […]

CYP2C9 = CYP2C9 (Homo sapiens, UniProt P11712); details: for CYP2C9 activity at 0.1 µM / CYP2C9 activity at 1 µM / CYP2C9 activity at 10 µM / CYP2C9 activity at 25 µM: ± SD
Sequence of CYP2C9 (P11712 whole entry, canonical isoform): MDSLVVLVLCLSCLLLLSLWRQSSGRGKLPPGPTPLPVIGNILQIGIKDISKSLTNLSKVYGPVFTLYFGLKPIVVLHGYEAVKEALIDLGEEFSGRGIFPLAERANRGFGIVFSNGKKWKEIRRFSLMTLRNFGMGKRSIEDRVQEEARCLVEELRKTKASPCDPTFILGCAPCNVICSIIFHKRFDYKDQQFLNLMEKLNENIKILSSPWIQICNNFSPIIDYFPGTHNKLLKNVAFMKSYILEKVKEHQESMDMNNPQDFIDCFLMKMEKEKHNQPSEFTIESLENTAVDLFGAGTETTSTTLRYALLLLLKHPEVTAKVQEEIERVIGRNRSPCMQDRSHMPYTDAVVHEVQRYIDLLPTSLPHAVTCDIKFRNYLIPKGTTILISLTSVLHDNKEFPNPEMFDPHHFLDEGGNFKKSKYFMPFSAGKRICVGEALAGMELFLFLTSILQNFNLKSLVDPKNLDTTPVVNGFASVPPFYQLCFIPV
From the text: (§1) Interactions with cytochrome enzymes are significant contributors to drug–drug interactions (DDIs), a crucial concern for patients who are on multiple medications. We determined the compounds’ influence on the most important CYP isoforms 3A4, 2D6, and 2C9, using the CYP450 inhibition luminescence assay from Promega (for details see Figures S23–S25 and Table S11 in the SI).
(§2) All protocols used for the evaluation of drug-like properties (ADME-To parameters) were described in our previous works.[58],[89] Precoated PAMPA Plate System Gentest was obtained from Corning, (Tewksbury, MA, USA). The metabolic stability assay was performed on human liver microsomes (HLMs, Sigma-Aldrich, St. Louis, MO, USA). The assays with microsomes were supported by MetaSite 6.0.1 software (Molecular Discovery Ltd. Hertfordshire, UK). To predict potential drug–drug interactions (DDIs) the influence on CYP3A4, CYP2D6, and CYP2C9 were carried with use of respective P450-Glo kit (Promega, Madison, WI, USA). The luminescence signal and absorbance were measured by using a microplate reader EnSpire PerkinElmer (Waltham, MA, USA). The LC/MS/MS analyses used in PAMPA and the assays with use of HLMs were obtained on Waters ACQUITY TQD system (Waters, Milford, CT, USA). […] Statistical significances and IC50 values were calculated by Graph Pad Prism 9 software. […]

CYP2D6 = CYP2D6 (Homo sapiens, UniProt P10635); details: for CYP2D6 activity at 0.1 µM / CYP2D6 activity at 1 µM / CYP2D6 activity at 10 µM / CYP2D6 activity at 25 µM: ± SD
Sequence of CYP2D6 (P10635 whole entry): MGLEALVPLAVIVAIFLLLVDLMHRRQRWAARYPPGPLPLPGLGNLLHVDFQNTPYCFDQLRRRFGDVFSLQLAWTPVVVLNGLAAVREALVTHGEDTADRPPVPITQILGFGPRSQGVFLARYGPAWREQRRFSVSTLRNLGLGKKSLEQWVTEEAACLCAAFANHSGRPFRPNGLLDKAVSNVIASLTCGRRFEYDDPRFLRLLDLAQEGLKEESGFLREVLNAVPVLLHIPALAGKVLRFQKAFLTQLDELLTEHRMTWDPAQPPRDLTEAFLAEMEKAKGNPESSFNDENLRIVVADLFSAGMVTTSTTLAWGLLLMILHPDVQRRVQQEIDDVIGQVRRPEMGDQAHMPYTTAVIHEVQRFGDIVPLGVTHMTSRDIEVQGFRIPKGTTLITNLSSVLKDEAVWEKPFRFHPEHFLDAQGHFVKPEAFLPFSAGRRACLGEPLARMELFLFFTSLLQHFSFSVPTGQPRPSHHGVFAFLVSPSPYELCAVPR
From the text: as §1, §2

CYP3A4 = CYP3A4 (Homo sapiens, UniProt P08684); details: for CYP3A4 activity at 0.1 µM / CYP3A4 activity at 1 µM / CYP3A4 activity at 10 µM / CYP3A4 activity at 25 µM: ± SD
Sequence of CYP3A4 (P08684 whole entry): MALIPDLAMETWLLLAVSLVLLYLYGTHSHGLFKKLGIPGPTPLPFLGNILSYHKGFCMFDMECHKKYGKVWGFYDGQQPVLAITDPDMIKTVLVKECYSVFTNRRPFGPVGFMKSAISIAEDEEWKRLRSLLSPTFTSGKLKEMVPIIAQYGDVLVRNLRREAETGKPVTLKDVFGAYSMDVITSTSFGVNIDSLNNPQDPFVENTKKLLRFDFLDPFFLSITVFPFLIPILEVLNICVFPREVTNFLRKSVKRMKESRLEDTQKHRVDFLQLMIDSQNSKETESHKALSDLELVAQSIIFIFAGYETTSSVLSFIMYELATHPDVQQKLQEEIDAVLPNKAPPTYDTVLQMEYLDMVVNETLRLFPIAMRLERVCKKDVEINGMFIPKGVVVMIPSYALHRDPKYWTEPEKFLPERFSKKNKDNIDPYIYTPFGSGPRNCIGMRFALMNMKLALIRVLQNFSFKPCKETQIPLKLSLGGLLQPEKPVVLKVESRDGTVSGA
From the text: as §1, §2

[1] = PAMPA; for permeability classification: versus caffeine
HT-22 cells = assay: Cytotoxicity in HT-22 cells (PrestoBlue); details: whole range of concentrations 0.1–100 μM
Description: The compounds were tested at 5 concentrations (0.1, 1, 10, 50, and 100 μM).
Mouse Hippocampal Neuronal Cell Line (HT-22) was a generous gift from Dr Bartosz Pomierny of the Department of Biochemical Toxicology, Jagiellonian University Medical College, Krakow, Poland. Cells were cultured in Dulbecco’s modified Eagle’s Medium—high glucose (DMEM, Glutamax Thermo Fisher) supplemented with 10% heat-inactivated fetal bovine serum (Thermo Fisher), 100 IU/mL penicillin (Merck) and 100 μg/mL streptomycin (Merck). Cells were cultured in flasks (area 175 cm^2, Nunc), and incubated at 37 °C, 5% CO2. For the measurement of cell viability and neuroprotective effect against okadaic acid cells were placed in a 96-well culture plate (2 × 10^4 cells per well, Falcon). Before the tests, cells were grown for 24 h in the incubator (37 °C, 5% CO2).
Cell viability was evaluated using the PrestoBlue reagent (ThermoFisher), according to the manufacturer’s procedures.[87] Following 24 h of incubation with the tested molecule, PrestoBlue reagent was added to a microplate well in an amount equal to one-tenth of the remaining medium volume. The resulting mixture was incubated for 15 min at 37 °C, and the fluorescence intensity (EX 530 nm; EM 580 nm) was measured in the plate reader POLARstar Omega, (BMG Labtech).

Row | Compound | IL-6 release (BV-2 cell line) | effect on CYP2C9 (CYP2C9) | CYP2C9 activity at 0.1 µM (CYP2C9) | CYP2C9 activity at 1 µM (CYP2C9) | CYP2C9 activity at 10 µM (CYP2C9) | CYP2C9 activity at 25 µM (CYP2C9) | CYP2D6 activity at 0.1 µM (CYP2D6) | CYP2D6 activity at 1 µM (CYP2D6) | CYP2D6 activity at 10 µM (CYP2D6) | CYP2D6 activity at 25 µM (CYP2D6) | effect on CYP2D6 (CYP2D6; any tested concentration) | effect on CYP3A4 (CYP3A4) | CYP3A4 activity at 0.1 µM (CYP3A4) | CYP3A4 activity at 1 µM (CYP3A4) | CYP3A4 activity at 10 µM (CYP3A4) | CYP3A4 activity at 25 µM (CYP3A4) | permeability classification [1] | cell viability in HT-22 cells (HT-22 cells) | interactions with CYP isoform 2C9 (CYP2C9; up to 25 μM) | Pe ([1]; unit not given)
1 | NC(=O)N1CC=C(c2ccnc(NC(=O)C3CC3)c2)C1 [Compound 11, 3-(2-(Cyclopropanecarboxamido)pyridin-4-yl)-2,5-dihydro-1H-pyrrole-1-carboxamide] | significantly reducing the release | inhibitory effect | 103.9 ± 7.0 % of control | 105.2 ± 7.4 % of control | 89.8 ± 4.7 % of control | 69.7 ±3.04 % of control | 91.2 ± 1.7 % of control | 93.0 ± 6.0 % of control | 95.2 ± 6.2 % of control | 97.4 ± 14.8 % of control | no effect | inhibitory effect | 103.8 ± 5.9 % of control | 100.1 ± 17.6 % of control | 94.2 ± 17.5 % of control | 76.4 ± 2.9 % of control | might not penetrate through the biological membranes |  |  | 
2 | O=C(Nc1cc(-c2ccc(-c3ncon3)s2)ccn1)C1CC1 [Compound 36, N-(4-(5-(1,2,4-Oxadiazol-3-yl)thiophen-2-yl)pyridin-2-yl)cyclopropanecarboxamide] | significantly reducing the release | inhibitory effect | 109.5 ± 17.0 % of control | 114.1 ± 14.9 % of control | 95.2 ± 7.5 % of control | 59.8 ± 11.5 % of control | 98.4 ± 10.8 % of control | 98.1 ± 12.7 % of control | 100.4 ± 20.8 % of control | 102.8 ± 15.0 % of control |  | inhibitory effect | 104.8 ± 3.4 % of control | 103.6 ± 11.0 % of control | 84.6 ± 15.1 % of control | 65.3 ± 11.9 % of control | well permeable | No significant decrease in cell viability | lacked significant interactions | 9.4
